# From BindingDB's records for doi:10.1016/j.bmc.2009.07.047 (4Sc, 2009)
# Test: Inhibition of Aurora-B in human HCT116 cells by FACS-based endoreduplication assay
row,Compound,EC50 [µM]
1,COc1cc2c(Nc3ccc(-c4nc5cc(Cl)ccc5s4)cc3)ncnc2cc1OCCCN1CCN(C)CC1 [N-[4-(6''-Chlorobenzo[d]thiazol-2''-yl)phenyl]-6'-methoxy-7'-[3-(4-methylpiperazin-1-yl)propoxy]quinazolin-4'-amine],> 10
2,COc1cc2c(Nc3ccc(-c4nc5ccccc5s4)c(F)c3)ncnc2cc1OCCCN1CCN(C)CC1 [N-(4-(benzo[d]thiazol-2-yl)-3-fluorophenyl)-6-methoxy-7-(3-(4-methylpiperazin-1-yl)propoxy)quinazolin-4-amine],> 10
3,COc1cc2c(Oc3ccc(-c4nc5ccccc5s4)cc3)ncnc2cc1OCCCN1CCN(C)CC1 [2-(4-(6-methoxy-7-(3-(4-methylpiperazin-1-yl)propoxy)quinazolin-4-yloxy)phenyl)benzo[d]thiazole],> 10

# Other lines, results leading:
row,EC50 [µM],Compound
1,> 10,COc1cc2c(Oc3ccc(-c4nc5ccccc5s4)cc3)ncnc2cc1OCCCN1CCCC1 [2-(4-(6-methoxy-7-(3-(pyrrolidin-1-yl)propoxy)quinazolin-4-yloxy)phenyl)benzo[d]thiazole]
2,> 10,COc1cc2c(Nc3ccc(-c4nc5ccccc5s4)c(Cl)c3)ncnc2cc1OCCCN1CCN(C)CC1 [N-(4-(benzo[d]thiazol-2-yl)-3-chlorophenyl)-6-methoxy-7-(3-(4-methylpiperazin-1-yl)propoxy)quinazolin-4-amine]
